Among the test systems are MCF7 breast; CCRF-CEM leukemia; ACHN renal; CAKI-1 renal; BT-549 breast; A498 renal; TK-10 renal; MDA-MB-435; LOX IMVI melanoma; EKVX NSCLC.
Common to all, as to test: DTP human tumour cell line panel, 48 h

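Interpolation was linear, between the two tested concentrations surrounding the appropriate level; five concentrations were tested over 48 hours in 96-well plates. The concentration for 50% growth inhibition is given as GI50. Definition used: TGI = concentration required for complete inhibition of growth.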 A value given as a limit tells only on which side of the number the result lay.

`COc1cc(NC(C)CCCN)c2nccc(C)c2c1OC` (centres undefined): the GI50 (as a rule, the concentration that inhibits growth by half) is 0.372 µM in the assay with MCF7 breast; 15.4 µM with CCRF-CEM leukemia; 20.7 µM in the assay with ACHN renal; 19 µM in the assay on CAKI-1 renal; 16 µM in the assay on BT-549 breast; 14.4 µM with A498 renal. The GI50 in the assay on TK-10 renal is 19.8 µM; with MDA-MB-435, 17.1 µM; in the assay on LOX IMVI melanoma it was 14.7 µM; in the assay with EKVX NSCLC, 18 µM. Further, the TGI (in general, the concentration at which net growth stops) in the assay with MCF7 breast came to 1.71 µM; in the assay with CCRF-CEM leukemia, 48 µM; in the assay with ACHN renal it was 50.1 µM; in the assay with CAKI-1 renal, 40.8 µM; in the assay on BT-549 breast it was 30.2 µM; with A498 renal it was 30 µM. The TGI in the assay with TK-10 renal stood at 45.8 µM; with MDA-MB-435, 32.7 µM; in the assay on LOX IMVI melanoma, 28.7 µM; in the assay on EKVX NSCLC, 33.8 µM.

Turning to `CCCS(=O)(=O)Nc1ccc(Nc2c3ccccc3nc3ccccc23)c(OC)c1`, the concentration for total growth inhibition (TGI) with MCF7 breast stood at 16.3 µM; in the assay with CCRF-CEM leukemia, 0.499 µM; with ACHN renal, 4.02 µM; in the assay on CAKI-1 renal it was 13.7 µM; with BT-549 breast it was 9.99 µM; in the assay with A498 renal, 6 µM. In addition, the total growth inhibition concentration (TGI) worked out at 15.6 µM with TK-10 renal, 26.3 µM in the assay on MDA-MB-435, 4.9 µM in the assay with LOX IMVI melanoma and 28.8 µM in the assay on EKVX NSCLC.

With `N#CC1(C2SCCS2=O)C2=C(C(=O)c3ccccc3C2=O)N2CCCC21` (centres undefined), the concentration for total growth inhibition (TGI) is 3.73 µM in the assay on MCF7 breast; 24.5 µM in the assay with CCRF-CEM leukemia; 16.2 µM in the assay on ACHN renal; 15 µM in the assay with CAKI-1 renal; 4.3 µM in the assay on BT-549 breast; 13 µM with A498 renal. In addition, the TGI turned out to be 43.7 µM in the assay with TK-10 renal, 1.3 µM with MDA-MB-435, 6.53 µM in the assay on LOX IMVI melanoma and 13.9 µM in the assay with EKVX NSCLC.

As for `N#CC(C(=O)/C(=N/Nc1nc(=S)[nH]n1N)C(C#N)c1ccccc1)c1ccccc1` (centres undefined), the TGI in the assay with MCF7 breast, in the assay with CCRF-CEM leukemia, in the assay on ACHN renal, with CAKI-1 renal, in the assay on BT-549 breast and in the assay on A498 renal was more than 100 µM throughout. Also, the TGI in the assay on TK-10 renal, in the assay with MDA-MB-435, in the assay with LOX IMVI melanoma and in the assay on EKVX NSCLC was more than 100 µM each time.

Regarding `Cc1sc2nc(NCCc3c[nH]c4ccc(Cl)cc34)[nH]c(=O)c2c1C`, the GI50 is 2.47 µM in the assay with MCF7 breast; 2.63 µM with CCRF-CEM leukemia; 1.93 µM with ACHN renal; 1.5 µM in the assay with CAKI-1 renal; 2.55 µM with BT-549 breast; 1.8 µM with A498 renal. In addition, the GI50 in the assay with TK-10 renal was 3.5 µM; with MDA-MB-435, 3.31 µM; with LOX IMVI melanoma, 1.87 µM; in the assay on EKVX NSCLC, 2.76 µM. The total growth inhibition concentration (TGI) is 7 µM with MCF7 breast; 14.2 µM with CCRF-CEM leukemia; 4.47 µM in the assay with ACHN renal; 3.7 µM in the assay on CAKI-1 renal; 9.95 µM in the assay on BT-549 breast; 4.15 µM with A498 renal. The TGI stood at 11.5 µM with TK-10 renal, 11.3 µM in the assay on MDA-MB-435 and 3.68 µM with LOX IMVI melanoma.

As for `COC(COC(=O)N1CCN(C=O)CC1)C1=C(N2CC2)C(=O)C(C)=C(N2CC2)C1=O` (centres undefined), the TGI was 1.07 µM with MCF7 breast; 4.77 µM in the assay with CCRF-CEM leukemia; 0.424 µM with ACHN renal; 3.6 µM with CAKI-1 renal; 1.97 µM in the assay with BT-549 breast; 4.02 µM in the assay with A498 renal. Also, the TGI in the assay on TK-10 renal is 2.09 µM; in the assay on MDA-MB-435, 0.976 µM; in the assay on LOX IMVI melanoma, 0.613 µM; in the assay on EKVX NSCLC, 10.9 µM.

Turning to `CCOC(=O)N1CCN(C(=O)c2ccc(C(F)(F)F)nc2Nc2cc(Cl)ccc2C)CC1`, the GI50 is 14.7 µM in the assay with MCF7 breast; 18.9 µM with CCRF-CEM leukemia; 13.9 µM with ACHN renal; 21.1 µM with CAKI-1 renal; 19.2 µM in the assay with BT-549 breast; 21.1 µM with A498 renal. The GI50 with TK-10 renal was 17.4 µM; in the assay on MDA-MB-435, 5.86 µM; with LOX IMVI melanoma it was 19.7 µM; in the assay on EKVX NSCLC, 23.2 µM. The TGI in the assay with MCF7 breast is 43 µM; in the assay on CCRF-CEM leukemia it was more than 100 µM; in the assay on ACHN renal, 89.4 µM; in the assay with CAKI-1 renal it was 64.5 µM; with BT-549 breast, 73.2 µM; in the assay with A498 renal, 56.4 µM. The TGI in the assay on TK-10 renal was 88.9 µM; in the assay on MDA-MB-435, 26.7 µM; in the assay with LOX IMVI melanoma, more than 100 µM; in the assay with EKVX NSCLC, more than 100 µM.

As for `Fc1ccc(Nc2cc(-n3nnc4ccccc43)nc3ccccc23)cc1`, the GI50 in the assay on MCF7 breast is 29.8 µM; in the assay on CCRF-CEM leukemia, more than 100 µM; in the assay with ACHN renal, more than 62.6 µM; in the assay with CAKI-1 renal, 41.5 µM; in the assay on BT-549 breast it was more than 47.9 µM; in the assay on A498 renal it was 56.4 µM. Also, the GI50 in the assay with TK-10 renal is 23.5 µM; in the assay on MDA-MB-435 it was more than 50.7 µM; in the assay with LOX IMVI melanoma, 37.7 µM; in the assay on EKVX NSCLC it was 31.8 µM. Also, the TGI with MCF7 breast is more than 84.4 µM; with CCRF-CEM leukemia it was more than 100 µM; with ACHN renal, more than 100 µM; in the assay on CAKI-1 renal, more than 68.9 µM; in the assay with BT-549 breast, more than 89 µM; in the assay with A498 renal it was more than 100 µM. Also, the TGI in the assay with TK-10 renal is more than 77.8 µM; in the assay with MDA-MB-435, more than 100 µM; with LOX IMVI melanoma it was more than 100 µM; in the assay on EKVX NSCLC it was more than 82.6 µM.

On to `Cc1cc(NC(=O)c2ccc(C)c(Nc3nccc(-c4cccnc4)n3)c2)cc(-n2cnc(C)c2)c1`, for which the GI50 in the assay on MCF7 breast is 1.86 µM; in the assay on CCRF-CEM leukemia, 0.134 µM; with ACHN renal, 0.0734 µM; with CAKI-1 renal, 2.18 µM; with BT-549 breast, 0.159 µM; in the assay with A498 renal it was 1.86 µM. Besides, the GI50 in the assay with TK-10 renal is 0.0882 µM; in the assay on MDA-MB-435, 2.12 µM; in the assay with LOX IMVI melanoma, 4.09 µM; in the assay with EKVX NSCLC, 4.27 µM. Moreover, the concentration for total growth inhibition (TGI) in the assay on MCF7 breast was 9.19 µM; with CCRF-CEM leukemia, more than 50 µM; with ACHN renal it was 3.96 µM; with CAKI-1 renal, 7.15 µM; in the assay with BT-549 breast, 9.98 µM; in the assay with A498 renal it was 7.93 µM. For the same molecule, the TGI in the assay with TK-10 renal worked out at 2.2 µM; with MDA-MB-435 it was 8.76 µM; with LOX IMVI melanoma, 13 µM; in the assay on EKVX NSCLC, 21.4 µM.

Values taken from PubChem BioAssay (NCI).
